Test results published in PMC6934184, “Selective DNA-PKcs inhibition extends the therapeutic index of localized radiotherapy and chemotherapy” (The Journal of Clinical Investigation, 2019).

Target: T1, TGFBR1 (ALK5) (Homo sapiens, UniProt P36897)
T1 construct: purchased Thermo Fisher Scientific (Life Technologies) SelectScreen
Test: SelectScreen LanthaScreen
Format: binding
Details: read-out: % displacement
Method: The in vitro kinase selectivity of NU5455 was determined using the SelectScreen Broad Assay Panel (Thermo Fisher Scientific) involving activity and binding assays (Supplemental Table 1). […] Class IA PI3Ks were measured using the p85α subunit.
Kinase [ATP] % Assay Kinase [ATP] % Assay Kinase [ATP] % Assay Kinase [ATP] % Assay
DNA-PK Km app 98.3 Z LATS2 n/a 4.7 L KIT D820E n/a 1.3 L GSK3B (GSK3 beta) Km app -2.5 Z
PIK3C3 (hVPS34) Km app 85.9 A PRKCZ (PKC zeta) Km app 4.7 Z GRK1 n/a 1.3 L BMPR2 n/a -2.5 L
PIK3C2B (PI3K-C2 beta) 10 28.9 A FGFR1 Km app 4.7 Z BRSK2 n/a 1.2 L CDC42 BPB (MRCKB) Km app -2.5 Z
SNF1LK2 Km app 26.6 Z MINK1 Km app 4.6 Z NUAK1 (ARK5) Km app 1.2 A AMPK (A2/B2/G2) n/a -2.6 L
HCK Km app 18.0 Z CSF1R (FMS) Km app 4.3 Z CDK9/cyclin K n/a 1.0 L PRKG1 Km app -2.7 Z
NEK2 Km app 17.8 Z CSNK1G3 (CK1 gamma 3) Km app 4.2 Z NUAK2 n/a 1.0 L KIT T670E n/a -2.8 L
ALK Km app 17.3 Z STK32C (YANK3) n/a 4.2 L CDK2/cyclin O n/a 0.9 L ERBB4 (HER4) Km app -2.8 Z
FGFR3 K650M n/a 16.5 L STK22D (TSSK1) Km app 4.2 Z CAMKK2 (CaMKK beta) n/a 0.9 L PLK4 n/a -2.8 L
SIK3 n/a 16.1 L TAOK3 (JIK) n/a 4.2 L FGFR3 Km app 0.9 Z GRK7 Km app -3.0 Z
LYN A Km app 15.2 Z RPS6KA4 (MSK2) Km app 4.2 Z ULK2 n/a 0.9 L MAPKAPK2 Km app -3.1 Z
BMPR1B (ALK6) n/a 14.5 L PTK2B (FAK2) Km app 4.2 Z KIT D816V n/a 0.9 L FGFR4 Km app -3.1 Z
INSRR (IRR) Km app 14.1 Z CLK2 Km app 4.1 Z CAMK1 (CaMK1) 10 0.8 A CASK n/a -3.1 L
PLK2 Km app 14.1 Z STK24 (MST3) Km app 4.1 Z PTK6 (Brk) Km app 0.7 Z GRK5 Km app -3.2 Z
PRKACA (PKA) Km app 14.0 Z CAMK1D (CaMKI delta) Km app 4.1 Z CAMK2B (CaMKII beta) Km app 0.7 Z EGFR (ErbB1) T790M Km app -3.3 Z
EIF2AK2 (PKR) n/a 13.3 L INSR Km app 4.1 Z ACVR1 (ALK2) n/a 0.7 L PAK4 Km app -3.3 Z
PRKX Km app 12.5 Z IRAK1 Km app 4.0 A ABL1 H396P n/a 0.6 L DAPK3 (ZIPK) Km app -3.4 Z
FGR Km app 12.1 Z SRC N1 Km app 3.9 Z MERTK (cMER) A708S n/a 0.6 L RET M918T n/a -3.5 L
CLK1 Km app 11.7 Z SRPK2 Km app 3.9 Z MAPKAPK5 (PRAK) Km app 0.6 Z PRKCQ (PKC theta) Km app -3.7 Z
MARK3 Km app 11.4 Z RPS6KA6 (RSK4) Km app 3.8 Z AKT1 (PKB alpha) Km app 0.5 Z CAMKK1 (CAMKKA) n/a -3.8 L
PDGFRB (PDGFR beta) Km app 11.0 Z GRK6 Km app 3.7 Z NTRK3 (TRKC) Km app 0.4 Z FLT3 D835Y Km app -3.9 Z
PRKCN (PKD3) Km app 10.7 Z PKN1 (PRK1) Km app 3.6 Z ZAP70 Km app 0.3 Z ROCK2 Km app -4.1 Z
STK16 (PKL12) n/a 10.5 L MAP3K8 (COT) 100 3.5 Z CSNK1A1 (CK1 alpha 1) Km app 0.3 Z CHUK (IKK alpha) Km app -4.2 A
FES (FPS) Km app 10.4 Z FLT4 (VEGFR3) Km app 3.5 Z MYLK (MLCK) n/a 0.2 L AXL Km app -4.2 Z
ABL1 Km app 10.4 Z GRK4 Km app 3.5 Z MKNK2 (MNK2) n/a 0.2 L PIM2 Km app -4.3 Z
MUSK Km app 10.3 Z FRK (PTK5) Km app 3.4 Z AMPK (A1/B1/G3) n/a 0.2 L PAK1 Km app -4.4 Z
MAPK1 (ERK2) Km app 10.1 Z FYN A n/a 3.3 L MAP3K2 (MEKK2) n/a 0.1 L BMPR1A (ALK3) n/a -4.4 L
BRAF 100 9.9 Z CDK1/cyclin A2 n/a 3.3 L CDK8/cyclin C n/a 0.1 L STK4 (MST1) Km app -4.4 Z
IGF1R Km app 9.7 Z KIT V559D T670I n/a 3.1 L MARK2 Km app 0.1 Z PRKCH (PKC eta) Km app -4.6 Z
MAPK14 (p38 alpha) Km app 9.7 Z SPHK2 10 3.1 A ICK n/a 0.0 L SGKL (SGK3) Km app -4.6 Z
LCK Km app 9.6 Z FGFR3 G697C n/a 3.1 L FGFR2 Km app 0.0 Z PI4KB (PI4K beta) Km app -4.7 A
MAPK11 (p38 beta) Km app 9.5 Z RIPK2 n/a 3.1 L AKT2 (PKB beta) Km app 0.0 Z PRKCE (PKC epsilon) Km app -4.9 Z
SRC Km app 9.5 Z PAK6 Km app 3.0 Z EPHB2 Km app -0.1 Z PHKG1 Km app -5.0 Z
CHEK1 (CHK1) Km app 9.3 Z LYN B Km app 3.0 Z TGFBR2 n/a -0.1 L PDGFRA D842V Km app -5.0 Z
CAMK2D (CaMKII delta) Km app 9.3 Z DAPK2 n/a 2.9 L TEK (Tie2) Km app -0.1 Z PRKG2 (PKG2) Km app -5.1 Z
PLK1 Km app 9.2 Z EPHA4 Km app 2.9 Z AURKA (Aurora A) Km app -0.1 Z TYRO3 (RSE) Km app -5.1 Z
RET Y791F Km app 9.2 Z PIK3CG (p110 gamma) Km app 2.9 A KIT D816H n/a -0.2 L TAOK2 (TAO1) Km app -5.1 Z
FLT3 Km app 9.1 Z HIPK1 (Myak) Km app 2.8 Z KIT N822K n/a -0.2 L EPHB4 Km app -5.3 Z
MAPK10 (JNK3) 100 9.0 Z ADRBK2 (GRK3) Km app 2.8 Z PRKACG (PRKAC gamma) n/a -0.2 L AURKC (Aurora C) Km app -5.4 Z
CSNK2A2 (CK2 alpha 2) Km app 8.7 Z STK17B (DRAK2) n/a 2.7 L TEK (TIE2) Y1108F n/a -0.3 L JAK1 Km app -5.7 Z […]

T1 sequence (P36897 34-503): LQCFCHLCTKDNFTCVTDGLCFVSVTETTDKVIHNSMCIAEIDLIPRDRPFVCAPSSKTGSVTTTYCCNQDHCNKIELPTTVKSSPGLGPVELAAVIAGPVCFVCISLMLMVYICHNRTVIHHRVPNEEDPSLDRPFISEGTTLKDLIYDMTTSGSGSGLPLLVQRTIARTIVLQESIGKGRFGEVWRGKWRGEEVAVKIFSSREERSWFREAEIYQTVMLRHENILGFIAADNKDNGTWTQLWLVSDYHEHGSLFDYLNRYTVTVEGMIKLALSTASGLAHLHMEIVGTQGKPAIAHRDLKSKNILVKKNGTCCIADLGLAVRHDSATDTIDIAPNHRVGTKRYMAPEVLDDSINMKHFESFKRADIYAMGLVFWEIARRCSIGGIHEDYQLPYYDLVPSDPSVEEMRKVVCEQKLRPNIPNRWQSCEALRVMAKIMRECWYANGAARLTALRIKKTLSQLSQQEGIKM

## CN(C(=O)CN1CCOCC1)c1ccc2sc3c(-c4cccc5c(=O)cc(N6CC7CCC(C6)O7)oc45)cccc3c2c1 [NU5455]
  inhibition at 1 µM: -0.4%
